# BindingDB's records for doi:10.1021/acs.jmedchem.0c00249 (China Pharmaceutical University, 2020)
# Assays:
# [1] = Inhibition of SHP2 E76K mutant in splenocytes derived from JMML patient assessed as reduction in cell proliferation in presence of GM-CSF
# [2] = Inhibition of SHP2 E76K mutant in splenocytes derived from JMML patient assessed as reduction in GM-CSF induced colony formation of myeloid blast cells measured after 14 days
compound,measurement,setting,value
Cc1cc(C)c2[nH]c3nc(SCC(=O)Nc4cccc5ccccc45)nnc3c2c1,IC50,[1],3.09 µM
same,IC50,[2],7.24 µM
